From PubChem BioAssay AID190 (DTP/NCI, 2004)
“And” between values parts separate entries of the source, which are not always exact repeats. Equal values may be shown once. Toxic doses and inconclusive results are not listed.

System: AKR/Lw mice, AKR lymphoma ip, median survival T/C
Test: NCI In Vivo Anticancer Drug Screen. Data for tumor model Lymphoma AKR (Transplanted) (intraperitoneal) in AKR/Lw mice
Details: endpoint: median survival time, higher = longer survival
Method: The antitumor activity of compounds was measured in mice bearing transplantable tumors. Survival or tumor size were measured and the results are expressed as the measurement made in the treated group (T) divided by the measurement made in the vehicle treated control group (C). The tumor model used in this assay is Lymphoma AKR (Transplanted) (intraperitoneal) in AKR/Lw mice

[1] = dose: 100.0 mg/kg/injection, schedule: Q01DX001 (ip), vehicle: saline
[2] = dose: 200.0 mg/kg/injection, schedule: Q01DX001 (ip), vehicle: saline
[3] = dose: 400.0 mg/kg/injection, schedule: Q01DX001 (ip), vehicle: saline
[4] = dose: 100.0 mg/kg/injection, schedule: Q01DX001 (ip), vehicle: Klucel (hydroxypropylcellulose) (HPC)
[5] = dose: 200.0 mg/kg/injection, schedule: Q01DX001 (ip), vehicle: Klucel (hydroxypropylcellulose) (HPC)
[6] = dose: 400.0 mg/kg/injection, schedule: Q01DX001 (ip), vehicle: Klucel (hydroxypropylcellulose) (HPC)
[7] = dose: 100.0 mg/kg/injection, schedule: Q04DX003 (ip), vehicle: Klucel (hydroxypropylcellulose) (HPC)
[8] = dose: 200.0 mg/kg/injection, schedule: Q04DX003 (ip), vehicle: Klucel (hydroxypropylcellulose) (HPC)
[9] = dose: 400.0 mg/kg/injection, schedule: Q04DX003 (ip), vehicle: Klucel (hydroxypropylcellulose) (HPC)

O=c1[nH]cc(F)c(=O)[nH]1
T/C (dose: 1.25 mg/kg/injection, schedule: Q01DX005 (ip), vehicle: saline): 152 % of control
T/C (dose: 1.25 mg/kg/injection, schedule: Q03HX032 (ip), vehicle: saline): 118 % of control
T/C (dose: 2.5 mg/kg/injection, schedule: Q01DX005 (ip), vehicle: saline): 114 % of control
T/C (dose: 2.5 mg/kg/injection, schedule: Q01DX015 (ip), vehicle: saline): 113 % of control
T/C (dose: 3.1 mg/kg/injection, schedule: Q04DX003 (ip), vehicle: saline): 123 % of control
T/C (dose: 5.0 mg/kg/injection, schedule: Q01DX001 (ip), vehicle: saline): 102 % of control
T/C (dose: 5.0 mg/kg/injection, schedule: Q01DX009 (ip), vehicle: saline): 100 % of control and 106 % of control
T/C (dose: 5.0 mg/kg/injection, schedule: Q01DX015 (ip), vehicle: saline): 108 % of control
T/C (dose: 5.0 mg/kg/injection, schedule: Q04DX003 (ip), vehicle: saline): 97 % of control
T/C (dose: 5.0 mg/kg/injection, schedule: Q04DX004 (ip), vehicle: saline): 115 % of control
T/C (dose: 5.0 mg/kg/injection, schedule: Q##DX003 (ip), vehicle: saline): 97 % of control
T/C (dose: 6.2 mg/kg/injection, schedule: Q01DX001 (ip), vehicle: saline): 104 % of control
T/C (dose: 6.2 mg/kg/injection, schedule: Q04DX003 (ip), vehicle: saline): 113 % of control
T/C (dose: 7.5 mg/kg/injection, schedule: Q01DX009 (ip), vehicle: saline): 105 % of control
T/C (dose: 9.0 mg/kg/injection, schedule: Q04DX003 (ip), vehicle: saline): 112 % of control
T/C (dose: 10.0 mg/kg/injection, schedule: Q01DX001 (ip), vehicle: saline): 94 % of control
T/C (dose: 10.0 mg/kg/injection, schedule: Q01DX009 (ip), vehicle: saline with Tween-80): 118 % of control
T/C (dose: 10.0 mg/kg/injection, schedule: Q01DX015 (ip), vehicle: saline): 180 % of control
T/C (dose: 10.0 mg/kg/injection, schedule: Q04DX003 (ip), vehicle: saline): 168 % of control
T/C (dose: 10.0 mg/kg/injection, schedule: Q##DX003 (ip), vehicle: saline): 168 % of control
T/C (dose: 12.5 mg/kg/injection, schedule: Q01DX001 (ip), vehicle: saline): 100 % of control and 121 % of control
T/C (dose: 15.0 mg/kg/injection, schedule: Q01DX009 (ip), vehicle: saline): 113 % of control
T/C (dose: 15.0 mg/kg/injection, schedule: Q01DX015 (ip), vehicle: saline): 150 % of control and 177 % of control
T/C (dose: 15.0 mg/kg/injection, schedule: Q04DX004 (ip), vehicle: saline): 113 % of control
T/C (dose: 18.0 mg/kg/injection, schedule: Q04DX003 (ip), vehicle: water): 98 % of control
T/C (dose: 20.0 mg/kg/injection, schedule: Q01DX001 (ip), vehicle: saline): 105 % of control
T/C (dose: 20.0 mg/kg/injection, schedule: Q01DX005 (ip), vehicle: saline): 161 % of control
T/C (dose: 20.0 mg/kg/injection, schedule: Q01DX009 (ip), vehicle: saline with Tween-80): 122 % of control
T/C (dose: 20.0 mg/kg/injection, schedule: Q01DX015 (ip), vehicle: saline): 167 % of control
T/C (dose: 20.0 mg/kg/injection, schedule: Q03HX024 (ip), vehicle: saline): 95 % of control
T/C (dose: 20.0 mg/kg/injection, schedule: Q04DX003 (ip), vehicle: saline): 107 % of control
T/C (dose: 20.0 mg/kg/injection, schedule: Q##DX003 (ip), vehicle: saline): 107 % of control
T/C (dose: 24.0 mg/kg/injection, schedule: Q04DX003 (ip), vehicle: water): 119 % of control
T/C (dose: 25.0 mg/kg/injection, schedule: Q01DX001 (ip), vehicle: saline): 109 % of control and 116 % of control
T/C (dose: 30.0 mg/kg/injection, schedule: Q01DX005 (ip), vehicle: saline): 161 % of control
T/C (dose: 30.0 mg/kg/injection, schedule: Q01DX009 (ip), vehicle: saline): 177 % of control
T/C (dose: 30.0 mg/kg/injection, schedule: Q04DX004 (ip), vehicle: saline): 107 % of control
T/C (dose: 36.0 mg/kg/injection, schedule: Q04DX003 (ip), vehicle: water): 163 % of control
T/C (dose: 40.0 mg/kg/injection, schedule: Q01DX009 (ip), vehicle: saline with Tween-80): 86 % of control
T/C (dose: 40.0 mg/kg/injection, schedule: Q04DX004 (ip), vehicle: saline): 168 % of control
T/C (dose: 40.0 mg/kg/injection, schedule: Q##DX003 (ip), vehicle: saline): 97 % of control
T/C (dose: 45.0 mg/kg/injection, schedule: Q04DX004 (ip), vehicle: saline): 123 % of control and 291 % of control
T/C (dose: 60.0 mg/kg/injection, schedule: Q04DX003 (ip), vehicle: saline): 89 % of control
T/C (dose: 60.0 mg/kg/injection, schedule: Q04DX004 (ip), vehicle: saline): 157 % of control and 352 % of control
T/C (dose: 60.0 mg/kg/injection, schedule: Q04DX008 (ip), vehicle: saline): 108 % of control
T/C (dose: 75.0 mg/kg/injection, schedule: Q01DX001 (ip), vehicle: saline): 150 % of control and 166 % of control
T/C (dose: 75.0 mg/kg/injection, schedule: Q04DX003 (ip), vehicle: saline): 260 % of control
T/C (dose: 75.0 mg/kg/injection, schedule: Q04DX004 (ip), vehicle: saline): 88 % of control
T/C (dose: 80.0 mg/kg/injection, schedule: Q04DX003 (ip), vehicle: saline): 99 % of control
T/C (dose: 150.0 mg/kg/injection, schedule: Q04DX003 (ip), vehicle: saline): 105 % of control
T/C (dose: 300.0 mg/kg/injection, schedule: Q04DX003 (ip), vehicle: saline): 88 % of control

COc1ccc(/C=C2/CSC/C(=C/c3ccc(OC)c(OC)c3)C2=O)cc1OC
T/C [1]: 96 % of control
T/C [2]: 88 % of control
T/C [3]: 90 % of control

O=C(Nc1ccccc1)Oc1ccc(Cl)cc1
T/C [4]: 100 % of control
T/C [5]: 100 % of control
T/C [6]: 106 % of control

NC(=O)NO
T/C (dose: 15.6 mg/kg/injection, schedule: Q06HX012 (ip), vehicle: saline): 93 % of control
T/C (dose: 15.6 mg/kg/injection, schedule: Q06HX016 (ip), vehicle: saline): 96 % of control
T/C (dose: 25.0 mg/kg/injection, schedule: Q06HX012 (ip), vehicle: saline): 100 % of control
T/C (dose: 31.25 mg/kg/injection, schedule: Q06HX012 (ip), vehicle: saline): 96 % of control
T/C (dose: 50.0 mg/kg/injection, schedule: Q01DX009 (ip), vehicle: saline): 94 % of control
T/C (dose: 50.0 mg/kg/injection, schedule: Q06HX012 (ip), vehicle: saline): 100 % of control
T/C (dose: 62.5 mg/kg/injection, schedule: Q06HX004 (ip), vehicle: saline): 92 % of control and 100 % of control
T/C (dose: 62.5 mg/kg/injection, schedule: Q06HX008 (ip), vehicle: saline): 93 % of control
T/C (dose: 62.5 mg/kg/injection, schedule: Q06HX012 (ip), vehicle: saline): 93 % of control
T/C (dose: 62.5 mg/kg/injection, schedule: Q06HX016 (ip), vehicle: saline): 100 % of control
T/C (dose: 75.0 mg/kg/injection, schedule: Q06HX012 (ip), vehicle: saline): 96 % of control
T/C (dose: 100.0 mg/kg/injection, schedule: Q06HX008 (ip), vehicle: saline): 92 % of control
T/C (dose: 100.0 mg/kg/injection, schedule: Q06HX012 (ip), vehicle: saline): 88 % of control

CC1NC1(c1ccccc1)[n+]1ccccc1 (configuration not stated)
T/C [2]: 100 % of control

C/C(=C\Cl)CN1C(=O)c2ccccc2C1=O
T/C [1]: 93 % of control
T/C [2]: 102 % of control
T/C [3]: 93 % of control

O=C(c1ccccc1)C1CCC1
T/C [4]: 95 % of control
T/C [5]: 95 % of control

O=[N+]([O-])c1ccc(OCc2ccc(S(=O)(=O)F)c(Cl)c2)c(Cl)c1
T/C (dose: 3.0 mg/kg/injection, schedule: Q01DX009 (ip), vehicle: Klucel (hydroxypropylcellulose) (HPC)): 104 % of control
T/C (dose: 6.0 mg/kg/injection, schedule: Q01DX009 (ip), vehicle: Klucel (hydroxypropylcellulose) (HPC)): 88 % of control
T/C (dose: 12.0 mg/kg/injection, schedule: Q01DX009 (ip), vehicle: Klucel (hydroxypropylcellulose) (HPC)): 95 % of control
T/C (dose: 12.5 mg/kg/injection, schedule: Q01DX009 (ip), vehicle: Klucel (hydroxypropylcellulose) (HPC)): 100 % of control
T/C [4]: 97 % of control
T/C [7]: 90 % of control
T/C [5]: 97 % of control
T/C [8]: 88 % of control
T/C [6]: 90 % of control
T/C [9]: 90 % of control

COc1ccc(Br)cc1/C=N\NS(=O)(=O)c1ccc(C)cc1
T/C [4]: 106 % of control
T/C [7]: 106 % of control
T/C [5]: 100 % of control
T/C [8]: 86 % of control
T/C [6]: 100 % of control
T/C [9]: 86 % of control
